{"source": "patent EP0231151A2", "about": "“Immunosuppressant agents” (priority 1986, dated 1987)", "key": {"[1]": {"target": "5-HT sensitive adenylate cyclase", "assay": "Activation of 5-HT sensitive adenylate cyclase of the liver fluke (method of Markstein)", "assay_type": "biochemical", "details": "adenylate cyclase stimulated by serotonin", "text": "A group of compounds comprises compounds which are D₂ agonists without any antagonistic activity. Another group of compounds includes those compounds which are serotonin agonists, e.g. as indicated in standard in vitro binding tests and by activation of 5-HT sensitive adenylate cyclase of the liver fluke according to the method of R.Markstein, Neurochemical effects of some ergot derivatives: A basis for their antiparkinson actions. J.Neural transm 51:39, (1981).\nExamples of such compounds include compound C and pergolide. Compound C, pergolide and 5-HT have efficacies of 90,80 and 100 respectively and pD₂ [log EC₅₀] of 6.9, 6.9 and 7.7 respectively in this test on adenylate cyclase stimulated by serotonin."}, "[2]": {"system": "basal serum prolactin levels", "assay": "Lowering basal serum prolactin levels in the male rat (prolactin secretion inhibition)", "assay_type": "in vivo", "details": "Rattus norvegicus, 4 h, read-out: ID50 after 4 hours", "text": "Many of the above mentioned compounds are published as prolactin secretion inhibitors, some of which are extremely potent and have long lasting activity. The potency of the compounds as prolactin secretion inhibitors can be determined in standard tests, e.g. by lowering basal serum prolactin levels in the male rat.\nResults with representative compounds include:-"}, "adjuvant arthritis": {"system": "adjuvant arthritis", "assay": "Freund's adjuvant arthritis in the rat, hind limb thickness", "assay_type": "in vivo", "details": "0.1 mg/kg/day s.c. osmotic pump", "description": "One test model is a rodent model of developing autoimmune adjuvant arthritis. An inhibition of the development of adjuvant arthritis is observed.\nIn one variante, Myobacterium Butyricum purchased from Difco Laboratories, Detroit, Michigan, was prepared in an emulsion with paraffin subliquidium PHHVI (Siegried Zofingen, Switzerland) at a concentration of 6 mg/ml. During ether anaesthesia a volume of 0.1 ml of this emulsion was injected with a 21 g 1-1/2 inch needle intracutaneously at the base of the tail of male Sprague-Dawley rats (ca 150-175 g). Arthritis occurred in 95% to 100% of the hind legs in the positive control animals. The hind limb (mid-tibial region) thickness was measured with a linear guage (Mitutoyo) coupled to an electronic digital readout (Mitutoyo).\n100% of a control group developed adjuvant arthritis. The compounds of the invention are administered by means of a sub-cutaneously sustained osmotic pump, over 7 days or 14 days to groups of 5 animals. Progression of the arthritis and the inhibiting effect of a representative compound, compound B, at 0.1 mg/kg/day are as follows:-"}, "[3]": {"assay": "Acute toxicity (LD50) in the mouse", "details": "in vivo", "text": "(§1) Toxicity data for some of the comounds of the invention have been published. Such data may be determined by routine experimentation. TOXICITY DATA for representative compounds NTEL = No toxic effect level."}, "[4]": {"assay": "No toxic effect level (NTEL), repeated oral dosing in rats", "details": "rat, in vivo, 26 weeks, p.o.", "text": "as §1"}, "[5]": {"assay": "No toxic effect level (NTEL) / tolerability, repeated oral dosing in dogs", "details": "dog, in vivo, no toxic effect level, 26 weeks, p.o.", "text": "as §1"}}, "data": [{"smiles": "NCCc1c[nH]c2ccc(O)cc12", "note": "[Compound 5-HT]", "values": [{"measurement": "pD₂ [log EC₅₀]", "setting": "[1]", "value": 7.7}, {"measurement": "efficacies", "setting": "[1]; 5-HT = 100", "value": 100}]}, {"smiles": "CN1C[C@@H](NS(=O)(=O)N(C)C)C[C@@H]2c3cccc4c3c(cn4C)C[C@H]21", "note": "[Compound B, 1,6-dimethyl-8α-(N,N-dimethylsulphamoylamino)-ergoline-I]", "values": [{"measurement": "ED50", "setting": "[2]", "value": 0.003, "unit": "mg/kg"}, {"measurement": "Hind Limb Thickness (mm)", "setting": "adjuvant arthritis; Day 0, 7 days dosing", "value": 6.1, "unit": "mm"}, {"measurement": "Hind Limb Thickness (mm)", "setting": "adjuvant arthritis; Day 0, 14 days dosing", "value": 6.0, "unit": "mm"}, {"measurement": "Hind Limb Thickness (mm)", "setting": "adjuvant arthritis; Day 3, 7 days dosing", "value": 6.2, "unit": "mm"}, {"measurement": "Hind Limb Thickness (mm)", "setting": "adjuvant arthritis; Day 3, 14 days dosing", "value": 6.2, "unit": "mm"}, {"measurement": "Hind Limb Thickness (mm)", "setting": "adjuvant arthritis; Day 6, 7 days dosing", "value": 6.2, "unit": "mm"}, {"measurement": "Hind Limb Thickness (mm)", "setting": "adjuvant arthritis; Day 6, 14 days dosing", "value": 6.2, "unit": "mm"}, {"measurement": "Hind Limb Thickness (mm)", "setting": "adjuvant arthritis; Day 9, 7 days dosing", "value": 6.5, "unit": "mm"}, {"measurement": "Hind Limb Thickness (mm)", "setting": "adjuvant arthritis; Day 9, 14 days dosing", "value": 6.7, "unit": "mm"}, {"measurement": "Hind Limb Thickness (mm)", "setting": "adjuvant arthritis; Day 12, 7 days dosing", "value": 6.9, "unit": "mm"}, {"measurement": "Hind Limb Thickness (mm)", "setting": "adjuvant arthritis; Day 12, 14 days dosing", "value": 7.7, "unit": "mm"}, {"measurement": "Hind Limb Thickness (mm)", "setting": "adjuvant arthritis; Day 15, 7 days dosing", "value": 7.6, "unit": "mm"}, {"measurement": "Hind Limb Thickness (mm)", "setting": "adjuvant arthritis; Day 15, 14 days dosing", "value": 7.8, "unit": "mm"}, {"measurement": "Hind Limb Thickness (mm)", "setting": "adjuvant arthritis; Day 18, 7 days dosing", "value": 7.9, "unit": "mm"}, {"measurement": "Hind Limb Thickness (mm)", "setting": "adjuvant arthritis; Day 18, 14 days dosing", "value": 7.9, "unit": "mm"}, {"measurement": "Hind Limb Thickness (mm)", "setting": "adjuvant arthritis; Day 21, 7 days dosing", "value": 8.2, "unit": "mm"}, {"measurement": "Hind Limb Thickness (mm)", "setting": "adjuvant arthritis; Day 21, 14 days dosing", "value": 8.2, "unit": "mm"}]}, {"smiles": "CCN(CC)S(=O)(=O)N[C@H]1C[C@@H]2c3cccc4c3c(cn4CC)C[C@H]2N(C)C1", "note": "[Compound D, N,N-diethyl-Nʹ-[(8α)-1-ethyl-6-methyl-ergolin-8-yl]-sulfamide]", "values": [{"measurement": "LD50 at 168 h", "setting": "[3]; iv, over 7 days, read-out: acute LD₅₀ (mouse) i.v.", "value": 44, "unit": "mg/kg"}, {"measurement": "LD50 at 336 h", "setting": "[3]; po, over 14 days, read-out: acute LD₅₀ (mouse) p.o.", "value": 992, "unit": "mg/kg"}, {"measurement": "NOAEL at 4368 h", "setting": "[4]", "value": "5 to 17", "unit": "mg/kg/day"}, {"measurement": "NOAEL at 4368 h", "setting": "[5]", "value": 0.3, "unit": "mg/kg/day"}]}, {"smiles": "CCCN1C[C@H](CSC)C[C@@H]2c3cccc4[nH]cc(c34)C[C@H]21", "note": "[pergolide, 6-n-propyl-8α-methylmercaptomethyl-ergoline-I]", "values": [{"measurement": "pD₂ [log EC₅₀]", "setting": "[1]", "value": 6.9}]}]}
